Experimental data as given in patent US11135237B2, “Lipophosphonoxins of second generation, and their use” (USTAV ORGANICKE CHEMIE A BIOCHEMIE AV CR, V.V.I., priority 2016, dated 2021).
Converted amounts (≈) assume the structure as drawn.

Experiments:
[1] = test system: Escherichia coli CCM 3954; assay: MIC, microdilution method, reference strains; type: cell-based; details: CCM3954, read after 24/48 hours of incubation at 37° C.
Description: (§1) Antibacterial activity was measured using a standard microdilution method, showing the minimum inhibitory concentration (MIC) of the test sample which results in inhibition of bacterial growth. Disposable microtiter plates were used for the tests. Samples are dissolved in the brain-heart infusion broth (HiMedia Laboraties Pvt. Ltd., Czech Republic), and Mueller Hinton broth (HiMedia Laboraties, see above) at a final concentration ranging from 200 μg/ml to 1.5625 μg/ml. Plates were inoculated with a standard amount of test bacteria-inoculum density in the hole corresponds to 10^5-6 CFU/ml (colony forming units/ml). MIC values are read after 24/48 hours of incubation at 37° C. as the minimum inhibitory concentration of the test substance at which the growth of bacteria is inhibited. Minimal bactericidal concentration (MBC) is defined as the minimum concentration of the sample needed to achieve irreversible inhibition, therefore killing the bacteria after a defined time of incubation. The MBC was determined by inoculation method. 10 μl from the wells in a microplate with a defined concentration of test substance is taken with an applicator, and inoculated onto the surface of blood agar (Trios, Czech Republic) and Sabouraud agar (Trios, CR). The MBC was determined as the lowest concentration that inhibited visible growth of the bacteria used. Standard reference bacterial strains (Escherichia coli CCM 3954, Pseudomonas aeruginosa CCM 3955, Enterococcus faecalis CCM 4224, Staphylococcus aureus CCM 4223) were obtained from the Czech Collection of Microorganisms (CCM) at […] University in Brno. Streptococcus agalactiae, Bacillus subtilis were obtained from the University Hospital Olomouc. The tested microorganisms were maintained in cryobanks (ITEST plus, Czech Republic) at -80° C.

Streptococcus agalactiae = assay: MIC, microdilution method, reference strains; type: cell-based; details: read after 24/48 hours of incubation at 37° C.
Description: as §1

Bacillus subtilis = assay: MIC, microdilution method, reference strains; type: cell-based; details: read after 24/48 hours of incubation at 37° C.
Description: as §1

[2] = test system: Pseudomonas aeruginosa CCM 3955; assay: MIC, microdilution method, reference strains; type: cell-based; details: CCM3955, read after 24/48 hours of incubation at 37° C.
Description: as §1

[3] = test system: Enterococcus faecalis CCM 4224; assay: MIC, microdilution method, reference strains; type: cell-based; details: CCM4224, read after 24/48 hours of incubation at 37° C.
Description: as §1

[4] = test system: Staphylococcus aureus CCM 4223; assay: MIC, microdilution method, reference strains; type: cell-based; details: CCM4223, read after 24/48 hours of incubation at 37° C.
Description: as §1

[5] = test system: Burkholderia multivorans ATCC BAA-247; assay: MIC, microdilution method; type: cell-based; details: ATCCBAA247, read after 24/48 hours of incubation at 37° C.
Description: (§2) Antibacterial activity was measured using a standard microdilution method, showing the minimum inhibitory concentration (MIC) of the test sample which results in inhibition of bacterial growth. Disposable microtiter plates were used for the tests. Samples are dissolved in the brain-heart infusion broth (HiMedia Laboraties Pvt. Ltd., Czech Republic), and Mueller Hinton broth (HiMedia Laboraties, see above) at a final concentration ranging from 200 μg/ml to 1.5625 μg/ml. Plates were inoculated with a standard amount of test bacteria—inoculum density in the hole corresponds to 10^5-6 CFU/ml (colony forming units/ml). MIC values are read after 24/48 hours of incubation at 37° C. as the minimum inhibitory concentration of the test substance at which the growth of bacteria is inhibited. Minimal bactericidal concentration (MBC) is defined as the minimum concentration of the sample needed to achieve irreversible inhibition, therefore killing the bacteria after a defined time of incubation. The MBC was determined by inoculation method. 10 μl from the wells in a microplate with a defined concentration of test substance is taken with an applicator, and inoculated onto the surface of blood agar (Trios, Czech Republic) and Sabouraud agar (Trios, CR). The MBC was determined as the lowest concentration that inhibited visible growth of the bacteria used.

[6] = test system: Salmonella Enteritidis S2-25; assay: MIC, microdilution method; type: cell-based; details: Salmonella enterica, read after 24/48 hours of incubation at 37° C.
Description: as §2

[7] = test system: Acinetobacter baumanii A3-08; assay: MIC, microdilution method; type: cell-based; details: Acinetobacter baumannii, A308; read after 24/48 hours of incubation at 37° C.
Description: as §2

[8] = test system: Stenotrophomonas matophilia S2-23; assay: MIC, microdilution method; type: cell-based; details: S223, read after 24/48 hours of incubation at 37° C.
Description: as §2

S. aureus MRSA 4591 = assay: MIC, microdilution method, resistant strains; type: cell-based; details: Staphylococcus aureus, methicillin-resistant strain, clinical isolate
Description: as §2

S. epidermidis 8700B = assay: MIC, microdilution method, resistant strains; type: cell-based; details: Staphylococcus epidermidis, methicilin-resistant strain, clinical isolate
Description: as §2

P. aeruginosa 16575 = assay: MIC, microdilution method, resistant strains; type: cell-based; details: Pseudomonas aeruginosa, resistant strain, clinical isolate
Description: as §2

E. coli 16702 = assay: MIC, microdilution method, resistant strains; type: cell-based; details: Escherichia coli, resistant strain, clinical isolate
Description: as §2

E. faecium VanA 419ana = assay: MIC, microdilution method, resistant strains; type: cell-based; details: Enterococcus faecium, VANA419ANA; vancomycin-resistant strain, clinical isolate
Description: as §2

S. haemolyticus 16568 = assay: MIC, microdilution method, resistant strains; type: cell-based; details: Staphylococcus haemolyticus, fluoroquinolone-resistant strain, clinical isolate
Description: as §2

rabbits = assay: OECD404 test for skin irritation in rabbits; type: in vivo
mice = assay: Maximum tolerated dose in mice, oral administration; type: in vivo
Description: Maximum tolerated dose in mice was very high, for the compound of Example 3 and oral administration the maximum tolerated dose was 1500 mg/kg of bodyweight.

SMILES | MIC [1] [µg/mL] | MIC (Streptococcus agalactiae) [µg/mL] | MIC (Bacillus subtilis) [µg/mL] | MIC [2] [µg/mL] | MIC [3] [µg/mL] | MIC [4] [µg/mL] | MIC [5] [µg/mL] | MIC [6] [µg/mL] | MIC [7] [µg/mL] | MIC [8] [µg/mL] | MIC (S. aureus MRSA 4591) [µg/mL] | MIC (S. epidermidis 8700B) [µg/mL] | MIC (P. aeruginosa 16575) [µg/mL] | MIC (E. coli 16702) [µg/mL] | MIC (E. faecium VanA 419ana) [µg/mL] | MIC (S. haemolyticus 16568) [µg/mL] | skin irritation (rabbits) | maximum tolerated dose (mice)
CCCCCCCCCCCCCOP(=O)(CCN(CCCN)CCCN)OC[C@H]1O[C@@H](n2ccc(=O)[nH]c2=O)C(O)C1O (stereo partly shown) [Example 4, Tridecyl-uridine-5′-yl-2-N-bis (3-aminopropyl)-2-aminoethyl phosphonate] | 25 (≈ 38.6 µM) | 6.25 (≈ 9.65 µM) | 3.12 (≈ 4.82 µM) | 3.12 (≈ 4.82 µM) | 50 (≈ 77.2 µM) | 12.5 (≈ 19.3 µM) | 50 (≈ 77.2 µM) | 50 (≈ 77.2 µM) | 50 (≈ 77.2 µM) | 50 (≈ 77.2 µM) | 25 (≈ 38.6 µM) | 12.5 (≈ 19.3 µM) | 25 (≈ 38.6 µM) | 50 (≈ 77.2 µM) | 100 (≈ 154 µM) | 6.25 (≈ 9.65 µM) |  | 
CCCCCCCCCCCCCCOP(=O)(CCN(CCCN)CCCN)OC[C@H]1O[C@@H](n2ccc(=O)[nH]c2=O)C(O)C1O (stereo partly shown) [Example 3, Tetradecyl-uridine-5′-yl-2-N-bis (3-aminopropyl)-2-aminoethyl phosphonate] | 6.25 (≈ 9.44 µM) | 3.12 (≈ 4.72 µM) | 0.78 (≈ 1.18 µM) | 0.78 (≈ 1.18 µM) | 25 (≈ 37.8 µM) | 6.25 (≈ 9.44 µM) | 200 (≈ 302 µM) | 6.25 (≈ 9.44 µM) | 25 (≈ 37.8 µM) | 50 (≈ 75.5 µM) | 6.25 (≈ 9.44 µM) | 1.56 (≈ 2.36 µM) | 1.56 (≈ 2.36 µM) | 3.12 (≈ 4.72 µM) | 100 (≈ 151 µM) | 1.56 (≈ 2.36 µM) | not an irritant | 1500 mg/kg of bodyweight
CCCCCCCCCCCCCCOP(=O)(CCN(CCCNC(=N)N)CCCNC(=N)N)OC[C@H]1O[C@@H](n2ccc(=O)[nH]c2=O)C(O)C1O (stereo partly shown) [Example 9] | 3.12 (≈ 4.19 µM) | 3.12 (≈ 4.19 µM) | 1.56 (≈ 2.09 µM) | 3.12 (≈ 4.19 µM) | 12.5 (≈ 16.8 µM) | 6.25 (≈ 8.38 µM) | 100 (≈ 134 µM) | 3.12 (≈ 4.19 µM) | 12.5 (≈ 16.8 µM) | 12.5 (≈ 16.8 µM) | 6.25 (≈ 8.38 µM) | 3.12 (≈ 4.19 µM) | 6.25 (≈ 8.38 µM) | 3.12 (≈ 4.19 µM) | 50 (≈ 67 µM) | 3.12 (≈ 4.19 µM) |  | 
CCCCCCCCCCCCCCCOP(=O)(CCN(CCCNC(=N)N)CCCNC(=N)N)OC[C@H]1O[C@@H](n2ccc(=O)[nH]c2=O)C(O)C1O (stereo partly shown) [Example 8] | 0.78 (≈ 1.03 µM) | 1.56 (≈ 2.05 µM) | 0.39 (≈ 0.513 µM) | 0.78 (≈ 1.03 µM) | 25 (≈ 32.9 µM) | 3.12 (≈ 4.11 µM) | 100 (≈ 132 µM) | 1.56 (≈ 2.05 µM) | 6.25 (≈ 8.22 µM) | 3.12 (≈ 4.11 µM) | 3.12 (≈ 4.11 µM) | 1.56 (≈ 2.05 µM) | 1.56 (≈ 2.05 µM) | 0.78 (≈ 1.03 µM) | 50 (≈ 65.8 µM) | 1.56 (≈ 2.05 µM) |  | 
CCCCCCCCCCCCCCCOP(=O)(CCN(CCCN)CCCN)OC[C@H]1O[C@@H](n2ccc(=O)[nH]c2=O)C(O)C1O (stereo partly shown) [Example 2, Pentadecyl-uridine-5′-yl-2-N-bis(3-aminopropyl)-2-aminoethyl phosphonate] | 6.25 (≈ 9.25 µM) | 3.12 (≈ 4.62 µM) | 1.56 (≈ 2.31 µM) | 3.12 (≈ 4.62 µM) | 50 (≈ 74 µM) | 6.25 (≈ 9.25 µM) | 12.5 (≈ 18.5 µM) | 3.12 (≈ 4.62 µM) | 6.25 (≈ 9.25 µM) | 3.12 (≈ 4.62 µM) | 12.5 (≈ 18.5 µM) | 6.25 (≈ 9.25 µM) | 3.12 (≈ 4.62 µM) | 6.25 (≈ 9.25 µM) | 25 (≈ 37 µM) | 3.12 (≈ 4.62 µM) |  | 
